According to patent publication US5120751A, “Benzoylphenyl pyridinylthiazolidine compounds as platelet activating antagonists” (Abbott Laboratories, priority 1991, dated 1992):
Counter-ions that a name gives are not always drawn.

molecular target: PAF receptor (Oryctolagus cuniculus, UniProt G1TEI7); assay: PAF receptor binding assay: inhibition of specific [3H]C18-PAF binding to rabbit platelet membranes; conditions: 0.6 nM [3H]C18-PAF, 60 minutes at 22-23 °C, pH 7.0, Ki calculated from IC50 (Cheng and Prusoff)
Sequence (G1TEI7 1-342): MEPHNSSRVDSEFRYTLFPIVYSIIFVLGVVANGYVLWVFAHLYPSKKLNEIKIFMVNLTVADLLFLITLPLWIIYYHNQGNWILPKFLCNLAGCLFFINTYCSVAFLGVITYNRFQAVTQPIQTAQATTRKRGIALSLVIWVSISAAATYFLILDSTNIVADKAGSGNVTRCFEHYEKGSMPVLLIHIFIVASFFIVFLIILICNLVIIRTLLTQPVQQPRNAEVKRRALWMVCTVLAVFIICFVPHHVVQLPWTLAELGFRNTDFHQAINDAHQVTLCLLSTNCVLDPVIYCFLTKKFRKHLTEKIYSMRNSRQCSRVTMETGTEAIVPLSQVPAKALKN

COc1cc(C(=O)c2cccc(N(C)C(=O)NC3CSC(c4cccnc4)S3)c2)cc(OC)c1OC (stereo not drawn) [Example 20b, N-methyl-N-[3-(3,4,5-trimethoxybenzoyl)phenyl] N'-[2-(3-pyridinyl)dithiolan-4-yl] urea] and COc1cc(C(=O)c2cccc(N(C)C(=O)C3CSC(c4cccnc4)S3)c2)cc(OC)c1OC (stereo not drawn) [Example 16, N-[3-(3,4,5-trimethoxybenzoyl)phenyl] N-methyl 2-(3-pyridinyl)-4-dithiolanecarboxamide hydrochloride] are within 1.5-fold of each other in Ki: 2200 nM for the first, 2600 nM for the second.

First: O=C(Nc1cccc(C(=O)c2ccccc2)c1)NC1CSC(c2cccnc2)S1 (stereo not drawn) [Example 17a, N-(3-benzoylphenyl) N'-[2-(3-pyridinyl)dithiolan-4-yl] urea]
Second: O=C(c1ccccc1)c1cccc(NC(=O)C2CSC(c3cccnc3)S2)c1 (stereo not drawn) [Example 9, N-(3-benzoylphenyl) 2-(3-pyridinyl)-4-dithiolanecarboxamide]
The Ki of the first is 57-fold higher: 1300 nM for the first, 23 nM for the second. The second binds more tightly here.

Going from COc1cc(C(=O)c2cccc(NC(=O)NC3CSC(c4cccnc4)S3)c2)cc(OC)c1OC (stereo not drawn) [Example 18b, N-[3-(3,4,5-trimethoxybenzoyl)phenyl] N'-[2-(3-pyridinyl)dithiolan-4-yl] urea] to COc1cc(C(=O)c2cccc(NC(=O)C3CSC(c4cccnc4)S3)c2)cc(OC)c1OC (stereo not drawn) [Example 10, N-[3-(3,4,5-trimethoxybenzoyl)phenyl] 2-(3-pyridinyl)-4-dithiolanecarboxamide], the Ki rises from 35 nM to 570 nM (16-fold). The first binds more tightly here.

First: CN(C(=O)NC1CSC(c2cccnc2)S1)c1cccc(C(=O)c2ccccc2)c1 (stereo not drawn) [Example 19a, N-methyl-N-(3-benzoylphenyl) N'-[2-(3-pyridinyl)dithiolan-4-yl] urea]
Second: O=C(Nc1cccc(C(=O)c2ccccc2)c1)NC1CSC(c2cccnc2)S1 (stereo not drawn) [Example 17b, N-(3-benzoylphenyl) N'-[2-(3-pyridinyl)dithiolan-4-yl] urea]
The Ki of the first is 11-fold higher: 2900 nM for the first, 260 nM for the second.

First: O=C(c1ccccc1)c1cccc(NC(=O)C2CCC(c3cccnc3)N2)c1 (stereo not drawn) [Example 21, N-(3-benzoylphenyl)-2-(3-pyridyl)-5-pyrrolidinecarboxamide]
Second: O=C(c1ccccc1)c1cccc(NC(=O)C2CSC(c3cccnc3)N2)c1 (stereo not drawn) [Example 1, N-(3-benzoylphenyl) 2-(3-pyridinyl)-4-thiazolidine carboxamide]
The Ki of the first is 160-fold higher: 780 nM for the first, 5 nM for the second. The second binds more tightly here.

Going from CN(C(=O)C1CSC(c2cccnc2)N1)c1cccc(C(=O)c2ccccc2)c1 (stereo not drawn) [Example 15, N-(3-benzoylphenyl) N-methyl 2-(3-pyridinyl)-4-thiazolidinecarboxamide dihydrochloride] to CN(C(=O)NC1CSC(c2cccnc2)S1)c1cccc(C(=O)c2ccccc2)c1 (stereo not drawn) [Example 19b, N-methyl-N-(3-benzoylphenyl) N'-[2-(3-pyridinyl)dithiolan-4-yl] urea], the Ki rises from 620 nM to 7000 nM (11-fold).

O=CN1C(C(=O)Nc2cccc(C(=O)c3ccccc3)c2)CSC1c1cccnc1 (stereo not drawn) [Example 11, N-(3-benzoylphenyl) 2-(3-pyridinyl)-3-formyl-4-thiazolidinecarboxamide] and CNC(=O)N1C(C(=O)Nc2cccc(C(=O)c3ccccc3)c2)CSC1c1cccnc1 (stereo not drawn) [Example 12, N-(3-benzoylphenyl) 2-(3-pyridinyl)-3-(N-methylcarbamoyl)-4-thiazolidinecarboxamide] are within 1.5-fold of each other in Ki: 500 nM for the first, 700 nM for the second.

Compared with COc1cc(C(=O)c2cccc(NC(=O)NC3CSC(c4cccnc4)S3)c2)cc(OC)c1OC (stereo not drawn) [Example 18a, N-[3-(3,4,5-trimethoxybenzoyl)phenyl] N'-[2-(3-pyridinyl)dithiolan-4-yl] urea], COc1cc(C(=O)c2cccc(N(C)C(=O)NC3CSC(c4cccnc4)S3)c2)cc(OC)c1OC (stereo not drawn) [Example 20a, N-methyl-N-[3-(3,4,5-trimethoxybenzoyl)phenyl] N'-[2-(3-pyridinyl)dithiolan-4-yl] urea] is 2.5-fold lower in Ki: 650 nM for the first, 260 nM for the second.

Going from O=C(c1cccc(NC(=O)C2CSC(c3cccnc3)N2)c1)c1ccc2c(c1)OCO2 (stereo not drawn) [Example 6, N-[3-(3,4-methylenedioxybenzoyl)phenyl] 2-(3-pyridinyl)-4-thiazolidinecarboxamide dihydrochloride] to COc1ccc(C(=O)c2cccc(NC(=O)C3CSC(c4cccnc4)N3)c2)cc1OC (stereo not drawn) [Example 8, N-[3-(3,4-dimethoxybenzoyl)phenyl] 2-(3-pyridinyl)-4-thiazolidinecarboxamide dihydrochloride], the Ki falls from 33 nM to 6 nM (5.5-fold). The second binds more tightly here.

First: NC(=O)N1C(CC(=O)Nc2cccc(C(=O)c3ccccc3)c2)CSC1c1cccnc1 (stereo not drawn) [Example 14, N-(3-benzoylphenyl) 2-(3-pyridinyl)-3-carbamoylthiazolid-4-ylacetamide]
Second: O=C(CC1CSC(c2cccnc2)N1)Nc1cccc(C(=O)c2ccccc2)c1 (stereo not drawn) [Example 13, N-(3-benzoylphenyl) 2-(3-pyridinyl)-thiazolid-4-ylacetamide]
The Ki of the first is 39-fold lower: 150 nM for the first, 5800 nM for the second.

Compared with CC(C)(C)OC(=O)N1C(C(=O)Nc2cccc(C(=O)c3ccccc3)c2)CSC1c1cccnc1 (stereo not drawn) [Example 2, N-(3-benzoylphenyl) 2-(3-pyridinyl)-3-tert-butoxycarbonyl-4-thiazolidinecarboxamide], COc1ccc(C(=O)c2cccc(NC(=O)C3CSC(c4cccnc4)N3)c2)cc1 (stereo not drawn) [Example 5, N-[3-(4-methoxybenzoyl)phenyl] 2-(3-pyridinyl)-4-thiazolidinecarboxamide dihydrochloride] is 2900-fold lower in Ki: 100000 nM for the first, 34 nM for the second.

First: COc1cc(C(=O)c2cccc(NC(=O)C3CSC(c4cccnc4)N3)c2)cc(OC)c1OC (stereo not drawn) [Example 4, N-[3-(3,4,5-trimethoxybenzoyl)phenyl] 2-(3-pyridinyl)-4-thiazolidinecarboxamide dihydrochloride]
Second: COc1cc(OC)cc(C(=O)c2cccc(NC(=O)C3CSC(c4cccnc4)N3)c2)c1 (stereo not drawn) [Example 7, N-[3-(3,5-dimethoxybenzoyl)phenyl] 2-(3-pyridinyl)-4-thiazolidinecarboxamide dihydrochloride]
The Ki of the first is 2-fold lower: 1 nM for the first, 2 nM for the second.
